Converted amounts (≈) assume the structure as drawn. Where two headings read alike, the source gives them in different places.
Columns and labels:
Escherichia coli = assay: MIC aerobic screen, H-59 synthetic agar
Trichomonas vaginalis = assay: MIC against Trichomonas vaginalis; type: cell-based; conditions: Table VII, strain 8560, anaerobic, 37° C., 40 hours, read-out: Minimum Inhibitory Concentration
Propionibacterium acnes = assay: MIC anaerobic screen; type: cell-based; conditions: Cutibacterium acnes, Table IV, strain 4020, read-out: Minimum Inhibitory Concentration
Salmonella typhimurium = assay: MIC aerobic screen, BA-2 agar
Bifidobacterium dentium = assay: MIC anaerobic screen; type: cell-based; conditions: Table IV, strain 11,260, read-out: Minimum Inhibitory Concentration
Candida albicans = assay: MIC against Candida albicans (broth tube dilution); type: cell-based; conditions: Table V, strain 5314, read-out: Minimum Inhibitory Concentration
Enterobacter cloacae = assay: MIC aerobic screen, BA-2 agar; conditions: Enterobacter cloacae, strain 10,459
Klebsiella pneumoniae = assay: MIC aerobic screen, BA-2 agar
[1] = test system: Acinetobacter calcoaceticus; assay: MIC aerobic screen, BA-2 agar; conditions: Acinetobacter calcoaceticus, strain 8333
Klebsiella aerogenes = assay: MIC aerobic screen, BA-2 agar; conditions: Klebsiella aerogenes, strain 10,436
Clostridium perfringens = assay: microbe, parasite or virus in culture; type: cell-based; conditions: read-out: Minimum Inhibitory Concentration
Bacteroides fragilis = assay: MIC anaerobic screen; type: cell-based
Mycoplasma mycoides = assay: microbe, parasite or virus in culture; type: cell-based; conditions: 48 h
Peptococcus variabilis = assay: MIC anaerobic screen; type: cell-based; conditions: Table IV, strain 11,264, read-out: Minimum Inhibitory Concentration
Pseudomonas aeruginosa = assay: MIC aerobic screen, BA-2 agar; conditions: Pseudomonas aeruginosa
Acholeplasma laidlawii = assay: MIC against mycoplasmas; type: cell-based; conditions: Table VIII, 48 hours, 37° C., phenol red color change
E. floccosum = assay: MIC against dermatophytes; type: cell-based; conditions: Epidermophyton floccosum; Table VI; strain 9185; 26° C., 48 hours; read-out: Minimum Inhibitory Concentration
[2] = read-out: Minimum Inhibitory Concentration, Table I, BA-2 agar
[3] = read-out: Minimum Inhibitory Concentration, Table II, additional tests

CC1(O)CC(C(N)=O)N=C1c1ncccc1O (stereo not drawn) [EM4940A, 2,4-trans-3,4-dihydro-4-hydroxy-5-(3-hydroxy-2-pyridinyl)-4-methyl-2H-pyrrole-2-carboxamide]
MIC (Escherichia coli; read-out: Minimum Inhibitory Concentration, Table III, H-59 agar, strain 10,404): 50 µg/mL (≈ 213 µM)
MIC (Escherichia coli; read-out: Minimum Inhibitory Concentration, Table III, H-59 agar, strain 10,857): 25 µg/mL (≈ 106 µM)
MIC (Trichomonas vaginalis): 12.5 µg/mL (≈ 53.1 µM)
MIC (Propionibacterium acnes): 50 µg/mL (≈ 213 µM)
MIC (Salmonella typhimurium; Salmonella enterica, TYPHIMURIUM, read-out: Minimum Inhibitory Concentration): 50 µg/mL (≈ 213 µM)
Minimum Inhibitory Concentration (Salmonella typhimurium; Table II, additional tests, strain 9201): 50 µg/mL
MIC (Bifidobacterium dentium): > 100 µg/mL
MIC (Candida albicans; Candida albicans, Medium: F4): > 100 µg/mL
MIC (Candida albicans; Medium: Yeast Nitrogen Base + Glucose): > 100 µg/mL
MIC (Enterobacter cloacae; [2]): > 100 µg/mL
MIC (Enterobacter cloacae; [3]): 50 µg/mL (≈ 213 µM)
MIC (Klebsiella pneumoniae; Klebsiella pneumoniae, read-out: Minimum Inhibitory Concentration): 50 µg/mL (≈ 213 µM)
Minimum Inhibitory Concentration (Klebsiella pneumoniae; Table II, additional tests, strain 11,066): 50 µg/mL
MIC [1, 2]: 50 µg/mL (≈ 213 µM)
MIC [1, 3]: 100 µg/mL (≈ 425 µM)
MIC (Klebsiella aerogenes; [2]): 100 µg/mL (≈ 425 µM)
MIC (Klebsiella aerogenes; [3]): 50 µg/mL (≈ 213 µM)
MIC (Clostridium perfringens): 50 µg/mL (≈ 213 µM)
MIC (Bacteroides fragilis; Table IV, anaerobic, strain 9005, read-out: Minimum Inhibitory Concentration): 50 µg/mL (≈ 213 µM)
MIC (Bacteroides fragilis; Table IV, anaerobic, strain 10,277, read-out: Minimum Inhibitory Concentration): 50 µg/mL (≈ 213 µM)
MIC (Bacteroides fragilis; Table IV, anaerobic, strain 10,278, read-out: Minimum Inhibitory Concentration): 50 µg/mL (≈ 213 µM)
MIC (Bacteroides fragilis; Table IV, anaerobic, strain 10,279, read-out: Minimum Inhibitory Concentration): 50 µg/mL (≈ 213 µM)
MIC (Bacteroides fragilis; Table IV, anaerobic, strain 10,281, read-out: Minimum Inhibitory Concentration): 50 µg/mL (≈ 213 µM)
MIC (Bacteroides fragilis; Table IV, anaerobic, strain 11,085, read-out: Minimum Inhibitory Concentration): 100 µg/mL (≈ 425 µM)
MIC (Bacteroides fragilis; Table IV, anaerobic, strain 11,086, read-out: Minimum Inhibitory Concentration): 50 µg/mL (≈ 213 µM)
MIC (Bacteroides fragilis; read-out: Minimum Inhibitory Concentration): 12.5 µg/mL (≈ 53.1 µM)
MIC (Mycoplasma mycoides): > 100 µg/mL
MIC (Peptococcus variabilis): 50 µg/mL (≈ 213 µM)
MIC (Pseudomonas aeruginosa; read-out: Minimum Inhibitory Concentration, Table I, BA-2 agar, strain 8754): > 100 µg/mL
MIC (Pseudomonas aeruginosa; read-out: Minimum Inhibitory Concentration, Table I, BA-2 agar, strain 9330): 50 µg/mL (≈ 213 µM)
MIC (Pseudomonas aeruginosa; read-out: Minimum Inhibitory Concentration, Table I, BA-2 agar, strain 9545): 25 µg/mL (≈ 106 µM)
MIC (Pseudomonas aeruginosa; read-out: Minimum Inhibitory Concentration, Table II, additional tests, strain 8754): 100 µg/mL (≈ 425 µM)
MIC (Pseudomonas aeruginosa; read-out: Minimum Inhibitory Concentration, Table II, additional tests, strain 9330): > 200 µg/mL
MIC (Pseudomonas aeruginosa; read-out: Minimum Inhibitory Concentration, Table II, additional tests, strain 9545): 12.5 µg/mL (≈ 53.1 µM)
MIC (Acholeplasma laidlawii): 100 µg/mL (≈ 425 µM)
MIC (E. floccosum): > 100 µg/mL

From patent US4339535A, “Process for preparing antibiotic EM 4940” (E. R. Squibb & Sons, Inc., priority 1980, dated 1982)
